According to patent US20130316958A1 (University of Southern California, priority 2010, published 2013):
Residues, ends and D or L forms follow the SMILES beside them. No end group written: not given here. *: point of attachment. Cbz = O=C(OCc1ccccc1)*; CH2F = FC*

Assays:
[1] = test system: mTor kinase activity in BCBL1 cells; assay: Immunoblot of p70S6K and ribosomal protein S6 phosphorylation; type: cell-based; details: treated BCBL1 cells
Experimental: Levels of phosphorylation of p70S6K and ribosomal protein S6 in BCBL1 cells were evaluated by immunoblotting with α-p70S6K, aphospho-specific p70S6K, aphospho-specific S6, or αactin.

[2] = test system: KSHV-infected TREX-BCBL-Vector cells; assay: GFP-LC3 puncta autophagy assessment after peptide treatment; type: cell-based; details: 30 or 50 μM peptide, 12 hr
Excerpt: (§1) The vFLIP α2 (10 aa) and α4 (12 aa) peptides that independently bound Atg3 at high efficiency were fused with the HIV-1 TAT protein transduction domain for intracellular delivery (Gump and Dowdy (2007) Trends Mol. Med. 13:443-448) and tested for their potential effects on autophagy induction. The K-α2 and K-α4 peptides contained KSHV vFLIP aa20-29 and aa128-139 regions, respectively, as retro-inverso versions to circumvent the proteolytic degradation. Mutant peptides K-α2m and K-α4m were also included, which replaced the hydrophobic core residues of the K-α2 (L21F22L23) and K-α4 (F130L-WVY139) peptides with alanines, as well as the C-α2 and C-α4 peptides containing the cFLIPs regions aa19-28 and aa128-139, respectively. At 12 hr post-transfection with GFP-LC3, KSHV-infected TREX-BCBL-Vector and TREX-BCBL-vFLIP cells were incubated with various concentrations of the peptides or rapamycin for an additional 12 hr, followed by an assessment of the GFP-LC3 puncta and cell death. […] Peptide-treated TREX-BCBL-Vector and TREX-BCBL-vFLIP cells were subjected to immunoblotting with αLC3 and aactin.

ALL cells = assay: Tumor cell viability by trypan blue exclusion, ALL cells; type: cell-based; details: for anticancer activity in ALL cell lines: BV-173 and SUP-B15, FIG. 5
Experimental: (§2) Tumor cells were treated with peptides at various concentrations for 12 hours and their viability measured by trypan blue exclusion, followed by analyses using the Beckman Coulter Z2 Particle Count and Size Analyzer (BC Z2 CS Analyzer). A minimum of 100 cells per sample using triplicate samples was counted per condition per experiment.

[3] = test system: KSHV-infected BCBL1 cells; assay: Combinatory treatment with rapamycin and peptide; type: cell-based; details: 25 nM rapamycin and 20 μM peptide, versus rapamycin or peptide alone
LC3-II in BCBL1 cells = assay: Immunoblotting with αLC3 of peptide-treated cells; type: cell-based; details: immunoblot
Excerpt: as §1

[4] = test system: virus-associated or non-virus-associated lymphoma cells; assay: Cell-type specificity of vFLIP peptide-induced death; type: cell-based; details: 30 or 50 μM peptide overnight
Experimental: The potential cell-type specificity of the activity of the vFLIP peptides was assessed by treating virus-associated or non-virus-associated lymphoma cells with 30 or 50 μM of the K-α2 or the K-α4 peptide overnight and subsequently assessing death levels.

[5] = test system: KSHV-infected BCBL1 cells; assay: Rapamycin- or zVAD-induced growth suppression and autophagic death; type: cell-based
Experimental: (§3) The effect of vFLIP on autophagy was tested in a KSHV-infected BCBL1 cell line. TREX-BCBL-Vector and TREX-BCBL-vFLIP cells were treated with rapamycin or left untreated for 6 days in the presence of doxycycline and subjected to scanning EM, to examine the morphologies of over 100 dead cells and quantify cell death for apoptosis and autophagic death, or subjected to PI staining and cell cycle analysis.
(§4) All siRNAs were produced by Dharmacon Research. siRNAs specific for human Beclin1 (5′[…]3′) and a nonspecific scrambled control siRNA were transfected using DharmaFect reagent (Dharmacon) according to the manufacturer's instructions. At 48-72 hr post-transfection, cells were analyzed for autophagy. Trypan blue staining and a Beckman Coulter Z2 Particle Count and Size analyzer were used to determine cell death (as a percentage) at day 5.

[6] = test system: human T cell lymphoblast-like cells, Jurket T; assay: Tumor cell viability by trypan blue exclusion, Jurket T; type: cell-based; details: FIG. 6A
Experimental: as §2

HCT116 = assay: Tumor cell viability, HCT116 colon cancer line; type: cell-based; details: FIG. 7C
Experimental: as §2

[7] = test system: human erythromyeloblastoid leukemia cells, K562; assay: Tumor cell viability by trypan blue exclusion, K562; type: cell-based; details: FIG. 6B
Experimental: as §2

LNCap cells = assay: Tumor cell viability, LNCap prostate cancer line; type: cell-based
Experimental: as §2

293T cells = assay: Tumor cell viability, 293T cells; type: cell-based; details: FIG. 7B
Experimental: as §2

human Beclin1 = assay: Beclin1 siRNA knockdown in BCBL1 cells; type: cell-based
Experimental: as §4

Atg3 = molecular target: T1, Atg3 (Homo sapiens, UniProt Q9NT62); assay: GST pulldown of KSHV vFLIP α-helix fragments and deletion mutants; type: binding; details: GST fusions or deletion mutants in HEK293T
T1 construct: GFP (alternative construct GFP-Atg3, not on the same molecule as GST); expressed in transfected cells; host or cells: HEK293T
T1 sequence (Q9NT62 whole entry, the tested form may be a part): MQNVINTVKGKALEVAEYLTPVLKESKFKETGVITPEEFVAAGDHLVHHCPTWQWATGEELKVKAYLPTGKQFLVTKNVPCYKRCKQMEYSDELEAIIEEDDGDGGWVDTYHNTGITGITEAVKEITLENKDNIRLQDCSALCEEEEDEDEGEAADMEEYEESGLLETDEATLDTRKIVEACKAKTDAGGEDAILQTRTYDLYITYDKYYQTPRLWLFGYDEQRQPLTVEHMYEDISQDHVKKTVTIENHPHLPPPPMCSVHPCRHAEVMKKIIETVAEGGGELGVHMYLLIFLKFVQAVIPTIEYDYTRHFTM
Excerpt: Due to the substantial similarities between DEDI and DED2, Atg3 bound each DED of KSHV vFLIP with a similar affinity. Structural analyses have shown that the DED1 and DED2 of KSHV vFLIP and MCV 159L contain six and five α-helixes, respectively. (Yang et al. (2005) Mol. Cell. 20:939-949); Bagneris et al. (2008) Mol. Cell. 30:620-631). To further define the Atg3 binding sequences, each DED of KSHV vFLIP was divided into small α-helix fragments based on the previous structural analysis and expressed as mammalian GST fusions. Truncated mutant constructs of KSHV-vFLIP and hATG3 were created by subcloning the PCR products of cDNA fragments containing each domain of the associated genes into pcDNA5/FRT/TO. HEK293T cells were transfected with mutant constructs for GST pulldown as described above, followed by immunoblotting with αV5. […] In contrast, vFLIP mutants carrying a loss of 14-3-3σ, IKKαβγ complex, or FADD interaction bound Atg3 and blocked rapamycin-induced autophagy as efficiently as wild-type vFLIP.

NIH3T3 cells = assay: TNFα-induced apoptosis by PI staining and flow cytometry; type: cell-based; details: CHX and TNF-α 12 hr
Excerpt: To determine the effects of the interactions of vFLIP with FADD, IKKαβγ, and 14-3-3σ on anti-autophagy activity, NIH3T3 cells stably expressing various vFLIP mutants were constructed: m14-3-3σ, which lacks 14-3-3σ-binding; mTRAF2, which lacks TRAF2-binding (Guasparri et al. (2006) EMBO Rep. 7:114-119); 67AAA and 58AAA, which have reduced NF-κB activation (Matta and Chaudhary (2004) Proc. Natl. Acad. Sci. USA 101:9399-9404); and mFADD, which lacks FADD-binding (Yang et al. (2005) Mol. Cell. 20:939-949). These cells were treated with either cyclohexamide (CHX) alone or CHX and TNF-α for 12 hr or with 2 μM rapamycin for 3 hr. Propidium iodide (PI) staining and flow cytometry analysis were performed to determine apoptosis levels. Alternatively, NIH3T3 cells containing vector, KSHV vFLIP, or its mutants were transfected with an NF-κB-luciferase reporter construct and a control renilla luciferase plasmid, pRL-SV40 (Promega). At 48 hr post-transfection, luciferase activity was measured with a luminometer using a dual luciferase assay kit (Promega) and normalized with renilla luciferase activity to determine transfection efficiency. GFP-LC3 puncta were detected using an inverted fluorescence microscope and the autophagy levels quantified as means (±SD) of the results from three independent experiments.

TREX-BCBL cells = assay: vFLIP expression in KSHV-infected BCBL1 cells: autophagy, growth suppression and death; type: cell-based; details: ectopic expression in BCBL1 cells
Experimental: To investigate whether vFLIP expression suppresses autophagy in virus-infected cells, a KSHV-infected BCBL1 cell line was constructed (TREX-BCBL) in which a Flag-tagged KSHV-vFLIP gene was integrated into the chromosomal DNA under the control of a tetracycline-inducible promoter. (Nakamura et al. (2003) J. Virol. 77:4205-4220). At 12-16 hr post-transfection with GFP-LC3, TREX-BCBL-Vector and TREX-BCBL-vFLIP cells were treated with Doxycycline for 24 hr, followed by incubation with 2 μM rapamycin for an additional 12 hr. The detection of GFP-LC3 and autophagy levels was performed as described above, vFLIP expression was detected by IB with anti-Flag, and autophagosomes were visualized by scanning EM (scale bar=50 nm). Treatment of these cells with doxycycline strongly activated Flag-vFLIP expression.
as §3, §4

## RRRQRRKKRGY-G-FVNLLFLVVE (RRRQRRKKRGYGFVNLLFLVVE; not fully specified) [K-α2, HIV-1 TAT-fused retro-inverso peptide containing KSHV vFLIP aa20-29]
[1]
  phosphorylation of p70S6K: marginal reduction
  phosphorylation of ribosomal protein S6: remained unaffected
[2]
  autophagy induction (GFP-LC3 puncta): able to induce autophagy in TREX-BCBL-Vector cells as effectively as 2 μM rapamycin
ALL cells
  anticancer activity in ALL cell lines: significant anticancer activities
[3]
  growth suppression and cell death in combination with rapamycin: marked increase of growth suppression and cell death
LC3-II in BCBL1 cells
  amount of LC3-II: A high amount of LC3-II was detected
[4]
  cell death by lymphoma cell type: primarily targeted KSHV-infected PEL cells (BCBL1, BCP-1, and BC-3), but not KSHV/EBV-coinfected PEL cells (BC-1 and JSC-1), EBV-immortalized Bob-B cells, nor non-virus-associated lymphoma cells (BJAB, K562 and Jurkat-T)

## CO[C@H]1C[C@@H]2CC[C@@H](C)[C@@](O)(O2)C(=O)C(=O)N2CCCC[C@H]2C(=O)O[C@H]([C@H](C)C[C@@H]2CC[C@@H](O)[C@H](OC)C2)CC(=O)[C@H](C)/C=C(\C)[C@@H](O)[C@@H](OC)C(=O)[C@H](C)C[C@H](C)/C=C/C=C/C=C/1C [rapamycin]
[5]; rapamycin, 6 days, over 100 dead cells examined
  dead cells with features characteristic of autophagic death (EM): approximately 60%

## RRRQRRKKRGY-G-NEMCYVWHLFTQ (RRRQRRKKRGYGNEMCYVWHLFTQ; not fully specified) [K-α4, HIV-1 TAT-fused retro-inverso peptide containing KSHV vFLIP aa128-139]
[1]
  phosphorylation of p70S6K: marginal reduction
  phosphorylation of ribosomal protein S6: remained unaffected
[6]
  cell death in Jurket T: induced cell death
[2]
  autophagy induction (GFP-LC3 puncta): able to induce autophagy in TREX-BCBL-Vector cells as effectively as 2 μM rapamycin
ALL cells
  anticancer activity in ALL cell lines: significant anticancer activities
ALL cells; TAT linked peptide, 30 μM and 50 μM, compared to TAT alone, FIG. 1
  cell death in ALL cells: induced cell deaths in various ALL cells
[3]
  growth suppression and cell death in combination with rapamycin: marked increase of growth suppression and cell death
HCT116
  anticancer activity in HCT116: anticancer activities
[7]
  cell death in K562: induced cell death
LC3-II in BCBL1 cells
  amount of LC3-II: A high amount of LC3-II was detected
LNCap cells; FIG. 7A
  anticancer activity in LNCap cells: anticancer activities
LNCap cells; FIG. 8
  anticancer activity in LNCaP cells (cell count and relative luminescence): confirms the anticancer activities
[4]
  cell death by lymphoma cell type: broadly targeted most lymphoma cells, resulting in varying degrees of cell death
293T cells
  anticancer activity in 293T cells: anticancer activities

## 5′AAGAUCCUGGACCGUGUCACC3′ [Beclin1 siRNA]
Human Beclin1
  endogenous Beclin1 expression: significantly reduced endogenous Beclin1 expression
Human Beclin1; cell death at day 5
  effect on rapamycin-induced autophagic death: attenuated rapamycin-induced autophagic death

## EVVLFLLNVF (also: GST fusion) [DED1α2 helix, α2 region of KSHV vFLIP aa 20-29, tested as mammalian GST fusion]
Atg3
  Atg3 binding (GST pulldown): individually sufficient for Atg3 binding

## COC(=O)CC(NC(=O)C(C)NC(=O)C(NC(=O)OCc1ccccc1)C(C)C)C(=O)CF (stereo not drawn) [zVAD, benzyloxycarbonylvalyl-alanyl-aspartic acid (O-methyl)-fluoro-methylketone] (Cbz-Val-Ala-Asp(OMe)-CH2F; configuration not given here)
[5]; BCBL1 cells
  growth suppression and cell death: effectively induced growth suppression and death of BCBL1 cells

B1: mFADD (protein, UniProt Q61160 1-205, looked up)
FAS-associated death domain …: MDPFLVLLHSLSGSLSGNDLMELKFLCRERVSKRKLERVQSGLDLFTVLLEQNDLERGHTGLLRELLASLRRHDLLQRLDDFEAGTATAAPPGEADLQVAFDIVCDNVGRDWKRLARELKVSEAKMDGIEEKYPRSLSERVRESLKVWKNAEKKNASVAGLVKALRTCRLNLVADLVEEAQESVSKSENMSPVLRDSTVSSSETP
NIH3T3 cells
  block of TNFα-induced apoptosis: either poorly blocked TNFα-induced apoptosis or no longer block it at all
TREX-BCBL cells
  block of rapamycin- or zVAD-induced growth suppression and autophagic death: almost completely blocked
